Data as given in patent US20250257357A1, “TREATMENT OF H3.3-MUTANT BRAIN CANCER WITH PNKP INHIBITORS” (UNIVERSITE PARIS CITE, priority 2022, published 2025).

Test system: Hela cells
Assay: RAD51 and 53BP1 repair foci by immunofluorescence in Hela cells with EZH2 inhibition
Format: cell-based, human
Settings: 72 h, 1 μM, damaged with camptothecin (3 h, 0.1 μM), FIG. 2B
Method: Camptothecin (CPT, Sigma-Aldrich) was used at 0.1 μM for 3 h, or at 1 μM for 1 or 3 h for iPOND in human cells, and at 5 or 10 μM in yeast cells; hydroxyurea (HU, Sigma-Aldrich) at 2 mM for 3 h; mitomycin C (MMC, Sigma-Aldrich) at 200 ng/ml and 25 ng/ml for 24 h for repair foci analyses and metaphase spreads, respectively; bleomycin (Bleo, Sigma-Aldrich) at 20 µg/mL for 3 h. An overnight treatment with 2 mM Thymidine followed by 3 h release in fresh medium was used to enrich cells in S phase for iPOND experiments (70-75% of cells were in S phase as evaluated by FACS). The EZH2 inhibitor GSK126 (EZH2i, Selleckchem) was used at 1 μM for 72 h.
Cells grown on glass coverslips (VWR) were either fixed directly with 2% paraformaldehyde (PFA) and permeabilized with 0.2% Triton X-100 in PBS or pre-extracted before fixation with 0.5% Triton X-100 in CSK buffer (Cytoskeletal buffer: 10 mM PIPES pH 7.0, 100 mM NaCl, 300 mM sucrose, 3 mM MgCl2) to remove soluble proteins (not bound to chromatin) and then fixed with 2% PFA. […] Images were mounted with Adobe Photoshop applying the same treatment of fluorescence levels to all images from the same experiment. […] The position of the LacO array was determined based on mCherry-LacR signal. DNA repair and PLA foci were identified and counted by using the find maxima function (Fiji software), on maximum intensity z-projections in the case of PLA foci. […]

For `CC[C@H](C)n1cc(C)c2c(C(=O)NCc3c(C)cc(C)[nH]c3=O)cc(-c3ccc(N4CCNCC4)nc3)cc21` [EZH2i, GSK126], the “RAD51 and 53BP1 foci (DNA repair defect)” value was “did not recapitulate the DNA repair defect”.
